Laboratory results taken from patent US6451571B1, “Thymidine kinase mutants” (University of Washington, priority 1994, dated 2002).

Key:
[1] = Time course analysis of thymidine phosphorylation by cell-free translation products; format: biochemical; conditions: for classification on the basis of TK activities: high-activity or low-activity subset; for TK activity (thymidine phosphorylation) in time course compared to wild-type TK: cell-free translation products, 30° C., adjusted to protein synthesis levels
Description: The transcripts described above were then used in a rabbit reticulocyte lysate cell-free translation system to synthesize active enzymes. Cell-free translation was according to Promega using nuclease-treated rabbit reticulocyte lysates.
For the high-activity mutant enzymes, unlabeled translation products were diluted 1/9 and incubated for 0, 5, 10, 20, or 30 minutes at 30° C. The TK activity results (counts per minute) were adjusted to reflect equivalent protein synthesis levels using the corresponding TCA-precipitable counts (^35S cpm).
The low-activity mutants were diluted 1/5, and the rate of phosphorylation as a function of time was also determined.

[2] = format: biochemical; conditions: for thermal stability compared to HSVTKII after 42° C. preincubation: cell-free translation products
Description: To substantiate this observation, cell-free translation products were incubated at 42° C. for increasing times prior to being assayed for enzyme activity. Briefly, cell free translation (“CFT”) products of each high-activity mutant, -RNA, and HSVTKII samples were diluted 1/9 and incubated for 0, 5, 10, and 20 minutes at 42° C. The preincubated samples were then assayed for 5 minutes (P155A/F161V and F161I) or 20 minutes (-RNA, HSVTKII, F161C, and D162E). The percent of activity remaining was determined with the untreated samples set at 100%. […] Because F161C lost greater than 90% of enzyme activity within the first 20 minutes at 42° C., shorter incubation periods at 42° C. were performed (0, 5, 10, and 20 minutes).
Low-activity mutant CFT products were diluted 1/5 and incubated for 0, 20, 40, or 60 minutes at 42° C. The preincubated samples were then assayed in triplicate for the thymidine phosphorylation for 60 minutes. The percent of activity remaining was determined using the untreated (time 0) sample as 100%.

E. coli KY895 = assay: Secondary screen: colony formation on acyclovir, AZT, LB and TK selection plates; format: cell-based; set-up: key to ACV / AZT / LB / 37° C. / 42° C.: ++: the same number of colonies were observed as compared to control plates; +: fewer (<20% those observed with pMCC) and generally smaller (˜50% smaller diameter) colonies were observed as compared to control plates; −: no colonies were observed; conditions: for AZT: colonies on AZT plates: 1 μg/mL thymidine + 0.05 μg/mL AZT; for AZT / ACV: 37° C.; for LB: colonies on LB+carb50 plates; for 37° C.: colonies on TK selection plates at 37° C.; for 42° C.: colonies on TK selection plates at 42° C.; for ACV: colonies on acyclovir plates: 1 μg/mL thymidine + 1 μg/mL acyclovir; for utilization of nucleoside analogues over thymidine in comparison to the wild-type: ACV and AZT plates
Description: The ability of pMCC (KY895) and 35 log-phase mutant pMDC (KY895) cultures to produce colonies on acyclovir (“ACV”) or AZT plates was determined in a secondary screen as described below. Briefly, log-phase cultures of TK positive clones were serially diluted in 0.9% NaCl and spread onto acyclovir or AZT plates (TK selection plates except 1 μ/mL thymidine+1 μg/mL acyclovir or 0.05 μg/mL AZT). Mutant cultures were also spread onto duplicate TK selection and LB+carb^50 plates. One set of TK selection plates and LB+carb^50 plates were incubated at 42° C. All other plates were incubated at 37° C. After 16-24 hours the plates were scored.
Briefly, only mutants that gave results which differed from those observed with the wild-type pMCC (KY895) are shown.

[3] = Substrate specificity assay, deoxycytidine; format: biochemical; conditions: cell-free translation products, 2 hours at 30° C.
Description: (§1) Three of the mutants (P155A/F161V, F161I and F161C) were assayed in triplicate for the relative levels of phosphorylation using thymidine, deoxycytidine, ACV, GCV, or AZT as substrates. Briefly, forty-eight […] of each tritiated substrate was used in each assay reaction. Translation products were diluted for each nucleoside assay as follows (translation/H2O). 1/100, thymidine; 2/3, deoxycytidine, GCV, and AZT; 4/1, ACV. Each set of assays was incubated for 2 hours at 30° C. and the amount of phosphorylated product determined.

[4] = Substrate specificity assay, thymidine; format: biochemical; conditions: cell-free translation products, 2 hours at 30° C.
Description: as §1

[5] = Substrate specificity assay, ACV; format: biochemical; conditions: cell-free translation products, 2 hours at 30° C.
Description: as §1

D162G
classification on the basis of TK activities [1]: low-activity
thermal stability compared to HSVTKII after 42° C. preincubation [2]: equivalent to HSVTKII

F161L
TK activity (thymidine phosphorylation) in time course compared to wild-type TK [1]: moderate ability to phosphorylate thymidine, albeit at a much reduced rate from HSVTKII
classification on the basis of TK activities [1]: low-activity
ability to form colonies on TK selection plates at 42° C. (E. coli KY895): unable to form colonies
AZT (E. coli KY895): ++
LB (E. coli KY895): ++
37° C. (E. coli KY895): ++
42° C. (E. coli KY895): −
ACV (E. coli KY895): ++
thermal stability compared to HSVTKII after 42° C. preincubation [2]: more thermolabile that HSVTKII

R163P/H164Q
classification on the basis of TK activities [1]: low-activity
ability to form colonies on TK selection plates at 42° C. (E. coli KY895): unable to form colonies
utilization of nucleoside analogues over thymidine in comparison to the wild-type (E. coli KY895): preferentially utilize one or both nucleoside analogues over thymidine
AZT (E. coli KY895): + (fewer (<20% those observed with pMCC) and generally smaller (˜50% smaller diameter) colonies were observed as compared to control plates)
LB (E. coli KY895): ++
37° C. (E. coli KY895): ++
42° C. (E. coli KY895): −
ACV (E. coli KY895): + (fewer (<20% those observed with pMCC) and generally smaller (˜50% smaller diameter) colonies were observed as compared to control plates)
thermal stability compared to HSVTKII after 42° C. preincubation [2]: equivalent to HSVTKII

F161I
TK activity (thymidine phosphorylation) in time course compared to wild-type TK [1]: statistically higher affinity for thymidine than the wild-type TK
classification on the basis of TK activities [1]: high-activity
phosphorylation of deoxycytidine over the wild-type enzyme [3]: 1.9 fold
utilization of nucleoside analogues over thymidine in comparison to the wild-type (E. coli KY895): preferentially utilize one or both nucleoside analogues over thymidine
AZT (E. coli KY895): + (fewer (<20% those observed with pMCC) and generally smaller (˜50% smaller diameter) colonies were observed as compared to control plates)
LB (E. coli KY895): ++
37° C. (E. coli KY895): ++
42° C. (E. coli KY895): ++
ACV (E. coli KY895): + (fewer (<20% those observed with pMCC) and generally smaller (˜50% smaller diameter) colonies were observed as compared to control plates)
phosphorylation of thymidine relative to HSVTKII [4]: 2.2 fold

P155A/F161V
TK activity (thymidine phosphorylation) in time course compared to wild-type TK [1]: statistically higher affinity for thymidine than the wild-type TK
classification on the basis of TK activities [1]: high-activity
phosphorylation of ACV over HSVTKII [5]: 2.4 fold
phosphorylation of deoxycytidine over the wild-type enzyme [3]: 2.8 fold
utilization of nucleoside analogues over thymidine in comparison to the wild-type (E. coli KY895): preferentially utilize one or both nucleoside analogues over thymidine
AZT (E. coli KY895): + (fewer (<20% those observed with pMCC) and generally smaller (˜50% smaller diameter) colonies were observed as compared to control plates)
LB (E. coli KY895): ++
37° C. (E. coli KY895): ++
42° C. (E. coli KY895): ++
ACV (E. coli KY895): ++
phosphorylation of thymidine relative to HSVTKII [4]: 2.6 fold

F161I/R163H
classification on the basis of TK activities [1]: low-activity
ability to form colonies on TK selection plates at 42° C. (E. coli KY895): severely reduced ability to form colonies
AZT (E. coli KY895): ++
LB (E. coli KY895): ++
37° C. (E. coli KY895): ++
42° C. (E. coli KY895): + (fewer (<20% those observed with pMCC) and generally smaller (˜50% smaller diameter) colonies were observed as compared to control plates)
ACV (E. coli KY895): ++
thermal stability compared to HSVTKII after 42° C. preincubation [2]: equivalent to HSVTKII

D162E
TK activity (thymidine phosphorylation) in time course compared to wild-type TK [1]: no difference in activities when compared to the wild-type TK
classification on the basis of TK activities [1]: high-activity

F161C
TK activity (thymidine phosphorylation) in time course compared to wild-type TK [1]: no difference in activities when compared to the wild-type TK
classification on the basis of TK activities [1]: high-activity
phosphorylation of ACV over HSVTKII [5]: 2 fold
phosphorylation of deoxycytidine over the wild-type enzyme [3]: 2.8 fold
utilization of nucleoside analogues over thymidine in comparison to the wild-type (E. coli KY895): preferentially utilize one or both nucleoside analogues over thymidine
AZT (E. coli KY895): −
LB (E. coli KY895): ++
37° C. (E. coli KY895): ++
42° C. (E. coli KY895): ++
ACV (E. coli KY895): + (fewer (<20% those observed with pMCC) and generally smaller (˜50% smaller diameter) colonies were observed as compared to control plates)
activity loss after only 5 minutes at 42° C. ([2]; cell-free translation product): ~85%
loss of enzyme activity within the first 20 minutes at 42° C. ([2]; cell-free translation product): greater than 90%
thermal stability compared to HSVTKII after 42° C. preincubation [2]: exceptionally thermolabile
